Legend:
[1] = Body weight and tolerability in arthritic and non-arthritic rats of the AA study; type: in vivo, rat
Excerpt: Adult male Lewis rats (200-250 g) were purchased from Charles River Laboratories, Raleigh, N.C. and housed two per cage. The animals were allowed to acclimate to the Sun Health Research Institute's vivarium for 7 days prior to the start of the experiment. The animals were maintained on a 12-h off/on light schedule. For AA rats rodent Diet (Purina Lab Diet 5001) was placed in the bottom of the cage and water was supplied using long-stemmed sipper tubes for easy access to food and water. […] Animals were weighed and observed daily to ensure adequate weight gain and good general health. Body weights and footpad measures were started 1 week prior to the first adjuvant injection to acclimate the animals to these mild stresses and obtain baseline data. Other than the development of arthritis, the good health of the animals was maintained throughout the course of the experiments. Protocols for the use and care of the animals in the study were approved prior to beginning the experiments by the Sun Health Research Institute Animal Use and Care Committee and complied with NIH guidelines for the humane use and care of research animals. Dorsoplantar footpad measurements were completed every other day. Prior to sacrifice the animals were given a 1.0 ml intraperitoneal (i.p.) injection of 8% chloral hydrate in sterile saline and radiographs were taken of their hind limbs to assess disease severity. The animals were then sacrificed using an overdose of chloral hydrate.
Lewis rats were randomly assigned into five experimental groups of four animals per group. The experimental groups were 1) saline/M. Butyricum suspended in saline (non-arthritic; control for drug and antigen challenge), 2) sodium narcistatin/M. Butyricum suspended in saline (non-arthritic; drug control for antigen challenge), 3) no treatment-CFA (arthritic; control for stress of injections), 4) saline-CFA (arthritic; control for drug treatment), and 5) sodium-narcistatin-CFA (arthritic) treatments. The experiment was completed with an N=4 then repeated with an additional N=4. […]

[2] = test system: CAIA mice; assay: Collagen type II antibody-induced arthritis (CAIA) mouse model; type: in vivo
Procedure: FIG. 9A-H the effect of SNS on hind paw swelling in CAIA mice. A and E: Day 0, B and F: Day 7, C: Day 10 in PBS-treated CAIA, G: Day 10 in SNS-treated CAIA after 3 injections, D: Day 12 in PBS-treated mice, and H: Day 12 in SNS-treated CAIA mice after five injections. SNS treatment was started on day 7 after anti-collagen type II mAb injection and i.p. injections of SNS were continued for 5 consecutive days at a dose of 5 mg/kg.
FIG. 10 is a graph of the data (exemplified in FIG. 9) on CAIA progression and effect of SNS on foot pad measurements in CAIA mice. Solid square: PBS-treated CAIA group (n=5), closed triangle: SNS-treated CAIA group (n=5). SNS treatment (i.p.) was started on day 7 after anti-collagen type II mAb injection, and SNS injections were continued for 5 consecutive days at a dose of 5 mg/kg. Values represent mean±S.E.M. P<0.0001. Statistical analysis was performed using t-test.
Sections of ankle joints were stained with hematoxylin and eosin (original magnification, ×10) on day 21 after mAb injection. SNS treatment (i.p.) was started on day 7 after anti-collagen type II mAb injection, and SNS injections were continued for 5 consecutive days at a dose of 5 mg/kg. Representative joint sections in non-CAIA group (A and D), PBS-treated CAIA (B and E), and SNS-treated CAIA (C and F) are shown at magnifications of ×10 and ×40, respectively.
Collagen-induced arthritis (CIA) is an experimental model for rheumatoid arthritis. In this model, antibodies against type II collagen are critical for the pathogenesis of arthritis. […] This model system has been used for investigating underlying cellular and molecular mechanisms during the effector phase of CIA (1).
FIGS. 9-10 show CAIA progression and the effect of SNS on hind paw swelling in CAIA mice. […] A and E: Day 0 (mAb immunization), B and F: Day 7 after antibody injection, C. Day10 after immunization in PBS-treated CAIA, G: Day 10 after immunization in SNS-treated CAIA after three SNS injections, D: Day 12 after immunization in PBS-treated CAIA mice, and […]: Day 12 after immunization in SNS-treated CAIA mice after five SNS injections. Ib. […] Solid square: control CAIA group treated with PBS (n=5), closed triangle: sodium narcistatin-treated CAIA group (n=5). Values represent mean±S.E.M. p<0.0001 vs. control CAIA group.

[3] = test system: NO production in LPS-stimulated RAW 264.7 cells; assay: NO production in LPS-stimulated RAW264.7 macrophage cell line (Griess reaction); type: cell-based, mouse; details: pre-treated with different concentrations, then 1 ng/ml LPS
Procedure: Cells were pre-treated with different concentrations of SNS and then followed by stimulation with LPS. C is medium control. LPS, positive control without SNS treatment. The statistical analysis was performed using one-way ANOVA.
In further tests, we investigated the effect of SNS on the production of NO in a mouse macrophage cell line, RAW264.7. Cells were pre-treated with different concentrations of SNS and subsequently stimulated with 1 ng/ml of LPS. The level of NO production was measured by a spectrophotographic method using the Griess reaction. […] “C” is medium control, and “LPS” is positive control without SNS treatment. This analysis had been performed at least 3-5 times depending on the cell lines and drug used, with statistical analysis performed using one-way ANOVA.

[4] = test system: splenic myeloid cells (CD11b+), T and B cells; assay: Splenic cell populations in SNS-treated rats (immunostaining, flow cytometry); type: in vivo, rat
Procedure: B. Summary of myeloid cells (CD11b+ cells) present in various treatment groups. The statistical analysis was performed using t-test (*, N=4). SMB-saline, saline treated, non-arthritic, mycobacterium challenged; SMB-SNS, SNS treated, non-arthritic, mycobacterium challenged; CFA-saline, arthritic Saline treated; CFA-No-RX, arthritic no treatment (stress control); CFA-SNS, SNS treated arthritic. The experimental groups are the same as those in FIGS. 4-7.
One of characteristics of inflammatory response is an elevation of myeloid cells. […] The cells were stained with fluorescence-conjugated antibodies specific to CD3, CD45R, and CD11b, followed by analyses using flow cytometry to reveal T, B, and myeloid cells, respectively. Lymphoid and myeloid cells were distinguished based on their differing forward and side scatter patterns.

Question: Which “tolerability / overt toxicity, arthritic rats” value ([1]; body weights and gross evaluation of internal organs at end point) does the source give for `O=C1N[C@@H]2C(=C[C@H](O)[C@H]3OP(=O)(O)O[C@H]32)c2cc3c(c(O)c21)OCO3` [SNS, sodium narcistatin] here?
Answer: no general signs of overt toxicity were apparent

Question: And the “body weight, non-arthritic control rats” value ([1]; day 28, chronic treatment, vs saline-treated non-arthritic controls, P<0.001)?
Answer: significantly decreased body weights

Question: What about the “body weight, arthritic rats” value ([1]; day 28, vs untreated or saline-treated arthritic rats) of the same molecule?
Answer: not significantly different

Question: And the “joint swelling after the fifth injection” value ([2]; CAIA mice, 5 mg/kg i.p.)?
Answer: swelling disappeared

Question: And the “joint swelling after the third injection” value ([2]; CAIA mice, 5 mg/kg i.p.)?
Answer: reduced joint swelling

Question: What about the ankle width ([2]; CAIA mice, 5 mg/kg i.p. 5 consecutive days from day 7, vs saline-treated, P<0.0001) of the same molecule?
Answer: significant decrease

Question: What about the “histology of ankle joints: inflammatory infiltration, cartilage and bone destruction” value ([2]; CAIA mice, day 21, hematoxylin and eosin) of the same molecule?
Answer: very little inflammatory infiltration to ankle joints and virtually no cartilage and bone destruction

Question: And the “toxicity in CAIA study” value ([2]; at the dosage used)?
Answer: toxic to the animals

Question: And the “toxicity, SNS treatment only” value ([2]; mice that only received SNS)?
Answer: did not observe toxicity

Question: And the “toxicity, combination of SNS and LPS treatment” value ([2]; mouse, in vivo)?
Answer: appeared to increase toxicity

Question: And the NO production [3]?
Answer: concentration-dependent inhibition of NO production

Question: What about the “splenic myeloid population (CD11b+ cells)” value ([4]; rats of the AA study, especially SNS/non-arthritic group) of the same molecule?
Answer: greatly reduced this myeloid population

Question: What about the “numbers of splenic T and B lymphocytes” value ([4]; various treatment groups) of the same molecule?
Answer: comparable numbers of T and B lymphocytes

Reference: patent US20050261246A1, “Methods for treating inflammatory and autoimmune diseases” (priority 2004, published 2005)
